20 compounds from patent US10519154B2, “7-substituted 1-pyridyl-naphthyridine-3-carboxylic acid amides and use thereof” (Bayer Pharma Aktiengesellschaft, priority 2016, dated 2019) can be followed below.

This assay deals with T1, human M2 receptor (Homo sapiens, UniProt P08172).
T1 sequence (P08172 1-466): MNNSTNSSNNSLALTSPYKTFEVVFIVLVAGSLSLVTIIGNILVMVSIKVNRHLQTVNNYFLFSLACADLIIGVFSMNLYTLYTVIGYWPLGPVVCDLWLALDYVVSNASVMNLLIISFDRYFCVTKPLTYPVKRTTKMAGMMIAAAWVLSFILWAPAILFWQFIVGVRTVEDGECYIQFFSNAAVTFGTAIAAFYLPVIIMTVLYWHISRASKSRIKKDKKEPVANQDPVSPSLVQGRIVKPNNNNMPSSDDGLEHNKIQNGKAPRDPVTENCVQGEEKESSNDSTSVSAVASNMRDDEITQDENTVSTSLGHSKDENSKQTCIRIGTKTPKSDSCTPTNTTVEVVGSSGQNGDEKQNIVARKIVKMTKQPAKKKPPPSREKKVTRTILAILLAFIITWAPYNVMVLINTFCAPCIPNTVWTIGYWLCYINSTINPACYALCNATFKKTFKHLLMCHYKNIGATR
Kind of assay: Functional M2-GIRK1/4 activation test: allosteric potency (EC50) and efficiency. The conditions noted are these: for EC50: Receptor activity EC50, CHO-DUKX-M2-GIRK cells, acetylcholine at EC20, in some cases mean of two or more determinations; for Emax: read-out: Efficiency, boosting of the acetylcholine effect at EC20 acetylcholine concentration; for Emax / Efficiency: CHO-DUKX-M2-GIRK cells; for Efficiency: boosting of the acetylcholine effect at EC20 acetylcholine concentration.

`CCC(NC(=O)c1cn(-c2ncc(F)cc2F)c2nc(N3C[C@@H](O)[C@H](O)C3)ccc2c1=O)C(F)(F)C(F)(F)F` (single isomer, unassigned) [Example 96]: the EC50 was found to be 68 nM and the Emax worked out at 100%.
On to `CC1C(=O)N(c2ccc3c(=O)c(C(=O)N[C@@H](C4CC4)C(F)(F)F)cn(-c4ncc(F)cc4F)c3n2)CC1O` (single isomer, unassigned) [Example 105], for which the EC50 came out at 98 nM and the Emax was 100%.
For `CC1C(=O)N(c2ccc3c(=O)c(C(=O)N[C@@H](C4CC4)C(F)(F)F)cn(-c4ncc(F)cc4F)c3n2)CC1O` (single isomer, unassigned) [Example 106], the EC50 was 165 nM and the Efficiency is given as 91.50%.
The compound `CC1C(=O)N(c2ccc3c(=O)c(C(=O)N[C@@H](C4CC4)C(F)(F)F)cn(-c4ncc(F)cc4F)c3n2)CC1O` (single isomer, unassigned) [Example 107] displayed an EC50 of 97 nM and an Efficiency of 98.00%.
As to `CC[C@H](NC(=O)c1cn(-c2ncc(F)cc2F)c2nc(N3CC(O)C(C)C3=O)ccc2c1=O)C(F)(F)F` (single isomer, unassigned) [Example 109], the EC50 came out at 135 nM and the Emax came out at 96%.
`CC[C@H](NC(=O)c1cn(-c2ncc(F)cc2F)c2nc(N3CC(O)C(C)C3=O)ccc2c1=O)C(F)(F)F` (single isomer, unassigned) [Example 110] had an EC50 of 190 nM and an Efficiency of 94.50%.
`CC[C@H](NC(=O)c1cn(-c2ncc(F)cc2F)c2nc(N3CC(O)C(C)C3=O)ccc2c1=O)C(F)(F)F` (single isomer, unassigned) [Example 111]: a half-maximal response (EC50) required 100 nM and the Efficiency is recorded as 99.00%.
Take `O=C(N[C@H](C1CC1)C(F)(F)F)c1cn(-c2ncccc2F)c2nc(N3CC4C[C@@]4(O)C3)ccc2c1=O` (single isomer, unassigned) [Example 136]: the midpoint of the response, the EC50, lay at 64 nM and the Emax worked out at 97.5%.
`O=C(N[C@H](C1CC1)C(F)(F)F)c1cn(-c2ncccc2F)c2nc(N3CC4C[C@@]4(O)C3)ccc2c1=O` (single isomer, unassigned) [Example 137] came in with an EC50 of 110 nM and an Efficiency of 99.00%.
Turning to `O=C(NC(c1ccccc1Cl)C(F)(F)F)c1cn(-c2ncc(F)cc2F)c2nc(N3CCNC3=O)ccc2c1=O` (single isomer, unassigned) [Example 148, N-[1-(2-Chlorophenyl)-2,2,2-trifluoroethyl]-1-(3,5-difluoropyridin-2-yl)-4-oxo-7-(2-oxoimidazolidin-1-yl)-1,4-dihydro-1,8-naphthyridine-3-carboxamide], the EC50 amounted to 66 nM and the Emax was determined as 100%.
The compound `O=C(NC(c1ccccc1Cl)C(F)(F)F)c1cn(-c2ncc(F)cc2F)c2nc(N3CCNC3=O)ccc2c1=O` (single isomer, unassigned) [Example 149, N-[1-(2-Chlorophenyl)-2,2,2-trifluoroethyl]-1-(3,5-difluoropyridin-2-yl)-4-oxo-7-(2-oxoimidazolidin-1-yl)-1,4-dihydro-1,8-naphthyridine-3-carboxamide] returned an EC50 of 32 nM and an Efficiency of 100.00%.
`CC(NC(=O)c1cn(-c2ncc(F)cc2F)c2nc(N3CCNC3=O)ccc2c1=O)C(F)(F)C(F)(F)F` (single isomer, unassigned) [Example 162, 1-(3,5-Difluoropyridin-2-yl)-4-oxo-7-(2-oxoimidazolidin-1-yl)-N-[3,3,4,4,4-pentafluorobutan-2-yl]-1,4-dihydro-1,8-naphthyridine-3-carboxamide]: the EC50 is 24 nM and the Emax worked out at 96%.
Compound `CC(NC(=O)c1cn(-c2ncc(F)cc2F)c2nc(N3CCNC3=O)ccc2c1=O)C(F)(F)C(F)(F)F` (single isomer, unassigned) [Example 163, 1-(3,5-Difluoropyridin-2-yl)-4-oxo-7-(2-oxoimidazolidin-1-yl)-N-[3,3,4,4,4-pentafluorobutan-2-yl]-1,4-dihydro-1,8-naphthyridine-3-carboxamide] yielded an EC50 of 120 nM and an Efficiency of 100.00%.
In the same order, the values of `CCC(NC(=O)c1cn(-c2ncc(F)cc2F)c2nc(N3CCNC3=O)ccc2c1=O)C(F)(F)C(F)(F)F` (single isomer, unassigned) [Example 166, 1-(3,5-Difluoropyridin-2-yl)-4-oxo-7-(2-oxoimidazolidin-1-yl)-N-[1,1,1,2,2-pentafluoropentan-3-yl]-1,4-dihydro-1,8-naphthyridine-3-carboxamide] are 30 nM and 81.00%.
With `CC(NC(=O)c1cn(-c2ncc(F)cc2F)c2nc(N3CCC[C@@H]3CO)ccc2c1=O)C(F)(F)C(F)(F)F` (single isomer, unassigned) [Example 175], the half-maximal effective concentration (EC50) was determined as 60 nM and the Emax stood at 98.5%.
For `CC(NC(=O)c1cn(-c2ncc(F)cc2F)c2nc(N3CCCC[C@@H]3CO)ccc2c1=O)C(F)(F)C(F)(F)F` (single isomer, unassigned) [Example 176], in that order: 28 nM and 100%.
Take `CC(NC(=O)c1cn(-c2ncc(F)cc2F)c2nc(N3CCC(O)(CO)CC3)ccc2c1=O)C(F)(F)C(F)(F)F` (single isomer, unassigned) [Example 177, 1-(3,5-Difluoropyridin-2-yl)-7-[4-hydroxy-4-(hydroxymethyl)piperidin-1-yl]-4-oxo-N-(3,3,4,4,4-pentafluorobutan-2-yl)-1,4-dihydro-1,8-naphthyridine-3-carboxamide]: a half-maximal response (EC50) required 38 nM and the Emax amounted to 100%.
For `CC(NC(=O)c1cn(-c2ncc(F)cc2F)c2nc(N3CC4(COC4)C3)ccc2c1=O)C(F)(F)C(F)(F)F` (single isomer, unassigned) [Example 181, 1-(3,5-Difluoropyridin-2-yl)-7-(2-oxa-6-azaspiro[3.3]hept-6-yl)-4-oxo-N-[3,3,4,4,4-pentafluorobutan-2-yl]-1,4-dihydro-1,8-naphthyridine-3-carboxamide], in that order: 220 nM and 100%.
In the same order, the values of `CC(NC(=O)c1cn(-c2ncc(F)cc2F)c2nc(N3CC(CO)(CO)C3)ccc2c1=O)C(F)(F)C(F)(F)F` (single isomer, unassigned) [Example 183, 7-[3,3-Bis(hydroxymethyl)azetidin-1-yl]-1-(3,5-difluoropyridin-2-yl)-4-oxo-N-[3,3,4,4,4-pentafluorobutan-2-yl]-1,4-dihydro-1,8-naphthyridine-3-carboxamide] are 53 nM and 100%.
As for `CC(NC(=O)c1cn(-c2ncc(F)cc2F)c2nc(N3CCC(CO)(CO)CC3)ccc2c1=O)C(F)(F)C(F)(F)F` (single isomer, unassigned) [Example 185, 7-[4,4-Bis(hydroxymethyl)piperidin-1-yl]-1-(3,5-difluoropyridin-2-yl)-4-oxo-N-[3,3,4,4,4-pentafluorobutan-2-yl]-1,4-dihydro-1,8-naphthyridine-3-carboxamide], the response was half-maximal at 121 nM (EC50) and the Emax was determined as 100%.
